Test results taken from patent US20080306038A1, “Compositions and Methods for Modulating Inflammation Using Fluoroquinolones” (priority 2007, published 2008).

Assays:
Assay type in all cases: cell-based, human
MCP-1 = assay: LPS-stimulated MCP-1 production in THP-1 monocytes (multiplex Luminex); set-up: key to Inhibition of LPS-stimulated MCP-1 production: “X” signifies significant inhibition at a particular concentration
Description: (§1) Human THP-1 monocytes (ATCC TIB 202) were purchased from American Type Culture Collection (Manassas, Va.) and maintained in RPMI 1640 medium (Invitrogen, Carlsbad, Calif.) supplemented with 10% fetal bovine serum (“FBS”, Invitrogen, Carlsbad, Calif.), 100 U/mL of penicillin (Invitrogen, Carlsbad, Calif.), and 100 μg/mL of streptomycin (Invitrogen, Carlsbad, Calif.) at 37° C. in a humidified incubator with 5% CO2. THP-1 cells were pre-cultured in RPMI 1640 medium containing 10% dialyzed serum for 24 h. […] Each treatment was performed in triplicate.
(§2) Samples were analyzed using multiplex bead technology, which utilizes microspheres as the solid support for immunoassays and allows the analysis of all cytokines from each sample (D. A. Vignali, J. Immunol. Methods, Vol. 243, 243-255 (2000)). Sixteen cytokines were measured according to the manufacturer's instructions. Briefly, 50 μL of medium samples were incubated with antibody-coated capture beads overnight at 4° C. Washed beads were further incubated with biotin-labelled anti-human cytokine antibodies for 2 h at room temperature followed by incubation with streptavidin-phycoerythrin for 30 min. Samples were analyzed using Luminex 200™ (Luminex, Austin, Tex.) and Beadview software v1.0 (Upstate Cell Signaling Solutions, Temecula, Calif.). Standard curves of known concentrations of recombinant human cytokines were used to convert fluorescence units (median fluorescence intensity) to cytokine concentration in pg/mL. Only the linear portions of the standard curves were used to quantify cytokine concentrations, and in instances where the fluorescence reading exceeded the linear range of the standard curve, an appropriate dilution was performed to ensure that the concentration was in the linear portion of the curve.
(§3) All cytokine concentrations (pg/mL) were expressed as mean ±standard deviation. Statistical analysis comparing effects of treatment across groups was performed using a one-way ANOVA with a Dunnett's post-hoc comparison test using either vehicle control or LPS treatment as references. […]

IL-12p40 = assay: LPS-stimulated IL-12p40 production in THP-1 monocytes (multiplex Luminex); set-up: key to Inhibition of LPS-stimulated IL-12p40 production: “X” signifies significant inhibition at a particular concentration; conditions: 18 hours
Description: as §1, §2
(§4) All cytokine concentrations (pg/mL) were expressed as mean ±standard deviation. Statistical analysis comparing effects of treatment across groups was performed using a one-way ANOVA with a Dunnett's post-hoc comparison test using either vehicle control or LPS treatment as references. For all assays, p≦0.05 was predetermined as the criterion of statistical significance.

IL-8 = assay: LPS-stimulated IL-8 production in THP-1 monocytes (multiplex Luminex); set-up: key to Inhibition of LPS-stimulated IL-8 production: “X” signifies significant inhibition at a particular concentration
Description: as §1, §2, §4

GM-CSF = assay: LPS-stimulated GM-CSF production in THP-1 monocytes (multiplex Luminex); set-up: key to Inhibition of LPS-stimulated GM-CSF production: “X” signifies significant inhibition at a particular concentration
Description: as §1, §2, §3

IL-6 = assay: LPS-stimulated IL-6 production in THP-1 monocytes (multiplex Luminex); set-up: key to Inhibition of LPS-stimulated IL-6 production: “X” signifies significant inhibition at a particular concentration
Description: as §1, §2, §4

VEGF = assay: LPS-stimulated VEGF production in THP-1 monocytes (multiplex Luminex); set-up: key to Inhibition of LPS-stimulated VEGF production: “X” signifies significant inhibition at a particular concentration; conditions: for Inhibition of LPS-stimulated VEGF production: 18 hours, THP-1 monocytes
Description: as §1, §2, §4

G-CSF = assay: LPS-stimulated G-CSF production in THP-1 monocytes (multiplex Luminex); set-up: key to Inhibition of LPS-stimulated G-CSF production: “X” signifies significant inhibition at a particular concentration
Description: as §1, §2, §4

IL-1α = assay: LPS-stimulated IL-1α production in THP-1 monocytes (multiplex Luminex); set-up: key to Inhibition of LPS-stimulated IL-1α production: “X” signifies significant inhibition at a particular concentration
Description: as §1, §2, §4

IL-1ra = assay: LPS-stimulated IL-1ra production in THP-1 monocytes (multiplex Luminex); set-up: key to Inhibition of LPS-stimulated IL-1ra production: “X” signifies significant inhibition at a particular concentration; conditions: for Inhibition of LPS-stimulated IL-1ra production: 18 hours
Description: as §1, §2, §4

IL-1β = assay: LPS-stimulated IL-1β production in THP-1 monocytes (multiplex Luminex); set-up: key to Inhibition of LPS-stimulated IL-1β production: “X” signifies significant inhibition at a particular concentration
Description: as §1, §2, §4

MIP-1α = assay: LPS-stimulated MIP-1α production in THP-1 monocytes (multiplex Luminex); set-up: key to Inhibition of LPS-stimulated MIP-1α production: “X” signifies significant inhibition at a particular concentration
Description: as §1, §2, §4

IP-10 = assay: LPS-stimulated IP-10 production in THP-1 monocytes (multiplex Luminex); set-up: key to Inhibition of LPS-stimulated IP-10 production: “X” signifies significant inhibition at a particular concentration
Description: as §1, §2, §4

Fractalkine = assay: LPS-stimulated fractalkine production in THP-1 monocytes (multiplex Luminex); conditions: 0.1-30 μg/mL, 18 hours
Description: as §1
(§5) Samples were analyzed using multiplex bead technology, which utilizes microspheres as the solid support for immunoassays and allows the analysis of all cytokines from each sample (D. A. Vignali, J. Immunol. Methods, Vol. 243, 243-255 (2000)). Sixteen cytokines were measured according to the manufacturer's instructions. Briefly, 50 μL of medium samples were incubated with antibody-coated capture beads overnight at 4° C. […] Samples were analyzed using Luminex 200™ (Luminex, Austin, Tex.) and Beadview software v1.0 (Upstate Cell Signaling Solutions, Temecula, Calif.). Standard curves of known concentrations of recombinant human cytokines were used to convert fluorescence units (median fluorescence intensity) to cytokine concentration in pg/mL. […]
(§6) All cytokine concentrations (pg/mL) were expressed as mean ±standard deviation. […]

RANTES = assay: LPS-stimulated RANTES production in THP-1 monocytes (multiplex Luminex); conditions: 0.1-30 μg/mL, 18 hours
Description: as §1, §5, §6

[1] = 30 μg/mL compound + 10 μg/mL LPS, 18 hours, THP-1 monocytes
[2] = LPS-induced, THP-1 monocytes, 18 hours
[3] = 30 μg/mL compound + 10 μg/mL LPS
[4] = 1 μg/mL compound + 10 μg/mL LPS, 18 hours, THP-1 monocytes
[5] = 10 μg/mL compound + 10 μg/mL LPS, 18 hours, THP-1 monocytes
[6] = FIG. 2, LPS-stimulated THP-1 monocytes

SMILES: N[C@@H]1CCCCN(c2c(F)cc3c(=O)c(C(=O)O)cn(C4CC4)c3c2Cl)C1 [Compound Having Formula IV]
- Inhibition of LPS-stimulated MCP-1 production (MCP-1; [1]): X
- Comparison of moxifloxacin and compound having Formula IV, effect on MCP-1 after LPS stimulation (MCP-1; FIG. 1, THP-1 monocytes): comparable effects
- Concentration at which a significant inhibitory effect was observed for MCP-1 (MCP-1; [2]): 30 µg/mL
- Inhibition of LPS-stimulated IL-12p40 production (IL-12p40; [3]): X
- Concentration at which a significant inhibitory effect was observed for IL-12p40 (IL-12p40; LPS-induced): 30 µg/mL
- Inhibition of LPS-stimulated IL-8 production (IL-8; [1]): X
- Comparison of moxifloxacin and compound having Formula IV, effect on IL-8 after LPS stimulation (IL-8; FIG. 1, THP-1 monocytes): comparable effects
- Concentration at which a significant inhibitory effect was observed for IL-8 (IL-8; [2]): 30 µg/mL
- Inhibition of LPS-stimulated GM-CSF production (GM-CSF; [1]): X
- Comparison of moxifloxacin and compound having Formula IV, effect on GM-CSF after LPS stimulation (GM-CSF; FIG. 1, THP-1 monocytes): comparable effects
- Concentration at which a significant inhibitory effect was observed for GM-CSF (GM-CSF; [2]): 30 µg/mL
- Inhibition of LPS-stimulated IL-6 production (IL-6; [4]): X
- Inhibition of LPS-stimulated IL-6 production (IL-6; [5]): X
- Inhibition of LPS-stimulated IL-6 production (IL-6; [1]): X
- Relative potency of compound having Formula IV and moxifloxacin on IL-6 (IL-6; [6]): better potency than moxifloxacin
- Concentration with significant inhibitory effect on IL-6 (IL-6; LPS-induced, THP-1 monocytes): 1000 ng/mL
- Concentration at which a significant inhibitory effect was observed for IL-6 (IL-6; [2]): 1 µg/mL
- Inhibition of LPS-stimulated VEGF production (VEGF; 10 μg/mL compound + 10 μg/mL LPS): X
- Inhibition of LPS-stimulated VEGF production (VEGF; [3]): X
- Relative potency of compound having Formula IV and moxifloxacin on VEGF (VEGF; [6]): better potency than moxifloxacin
- Inhibition of LPS-stimulated G-CSF production (G-CSF; [4]): X
- Inhibition of LPS-stimulated G-CSF production (G-CSF; [5]): X
- Inhibition of LPS-stimulated G-CSF production (G-CSF; [1]): X
- Relative potency of compound having Formula IV and moxifloxacin on G-CSF (G-CSF; [6]): better potency than moxifloxacin
- Concentration with significant inhibitory effect on G-CSF (G-CSF; LPS-induced, THP-1 monocytes): 1000 ng/mL
- Concentration at which a significant inhibitory effect was observed for G-CSF (G-CSF; [2]): 1 µg/mL
- Inhibition of LPS-stimulated IL-1α production (IL-1α; 0.1 μg/mL compound + 10 μg/mL LPS, 18 hours, THP-1 monocytes): X
- Inhibition of LPS-stimulated IL-1α production (IL-1α; [4]): X
- Inhibition of LPS-stimulated IL-1α production (IL-1α; [5]): X
- Inhibition of LPS-stimulated IL-1α production (IL-1α; [1]): X
- Relative potency of compound having Formula IV and moxifloxacin on IL-1α (IL-1α; [6]): better potency than moxifloxacin
- Lowest concentration with significant inhibitory effect on IL-1α (IL-1α; LPS-induced, THP-1 monocytes): 100 ng/mL
- Concentration at which a significant inhibitory effect was observed for IL-1α (IL-1α; [2]): 0.1 µg/mL
- Inhibition of LPS-stimulated IL-1ra production (IL-1ra; 1 μg/mL compound + 10 μg/mL LPS, THP-1 monocytes): X
- Inhibition of LPS-stimulated IL-1ra production (IL-1ra; 10 μg/mL compound + 10 μg/mL LPS, THP-1 monocytes): X
- Inhibition of LPS-stimulated IL-1ra production (IL-1ra; 30 μg/mL compound + 10 μg/mL LPS, THP-1 monocytes): X
- Relative potency of compound having Formula IV and moxifloxacin on IL-1ra (IL-1ra; [6]): better potency than moxifloxacin
- Concentration with significant inhibitory effect on IL-1ra (IL-1ra; LPS-induced, THP-1 monocytes): 1000 ng/mL
- Inhibition of LPS-stimulated IL-1β production (IL-1β; [1]): X
- Comparison of moxifloxacin and compound having Formula IV, effect on IL-1β after LPS stimulation (IL-1β; FIG. 1, THP-1 monocytes): comparable effects
- Concentration at which a significant inhibitory effect was observed for IL-1β (IL-1β; [2]): 30 µg/mL
- Inhibition of LPS-stimulated MIP-1α production (MIP-1α; [1]): X
- Comparison of moxifloxacin and compound having Formula IV, effect on MIP-1α after LPS stimulation (MIP-1α; FIG. 1, THP-1 monocytes): comparable effects
- Concentration at which a significant inhibitory effect was observed for MIP-1α (MIP-1α; [2]): 30 µg/mL
- Inhibition of LPS-stimulated IP-10 production (IP-10; [1]): X
- Comparison of moxifloxacin and compound having Formula IV, effect on IP-10 after LPS stimulation (IP-10; FIG. 1, THP-1 monocytes): comparable effects
- Concentration at which a significant inhibitory effect was observed for IP-10 (IP-10; [2]): 30 µg/mL
- Effect on LPS-stimulated production of fractalkine (Fractalkine): Neither moxifloxacin nor compound having Formula IV altered
- Effect on LPS-stimulated production of RANTES (RANTES): Neither moxifloxacin nor compound having Formula IV altered
